This note sets out measurements from patent US20240174634A1, “Aldehyde Dehydrogenase Inhibitors and Their Therapeutic Use” (priority 2020, published 2024).

For orientation: IC50 means the concentration that inhibits the measured activity by half. Low values mean greater potency, high ones weaker potency.

Test [1] concerns the target T1, ALDH1A2 (Homo sapiens, UniProt O94788).
T1 construct: His-tag; made in house; host or cells: E. coli Rosetta (DE3)
T1 sequence (O94788 1-518): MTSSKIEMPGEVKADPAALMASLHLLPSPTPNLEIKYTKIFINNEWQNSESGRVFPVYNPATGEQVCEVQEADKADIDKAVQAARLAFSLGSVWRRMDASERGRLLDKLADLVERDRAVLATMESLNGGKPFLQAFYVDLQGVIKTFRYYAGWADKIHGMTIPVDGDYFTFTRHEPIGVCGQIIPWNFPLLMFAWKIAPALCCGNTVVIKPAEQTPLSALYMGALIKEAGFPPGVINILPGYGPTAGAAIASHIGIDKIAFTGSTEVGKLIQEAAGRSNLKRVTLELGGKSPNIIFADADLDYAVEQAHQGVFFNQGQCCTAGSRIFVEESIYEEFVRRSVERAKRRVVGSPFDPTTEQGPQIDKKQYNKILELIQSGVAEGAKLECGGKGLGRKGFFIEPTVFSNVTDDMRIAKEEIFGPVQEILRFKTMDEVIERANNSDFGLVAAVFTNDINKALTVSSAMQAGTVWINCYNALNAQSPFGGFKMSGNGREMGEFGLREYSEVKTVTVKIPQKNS
Description: Selectivity biochemical assay, NAD(P)H-Glo Detection System. The method, boiled down:
(§1)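 Recombinant full-length His-tagged human enzymes expressed in E. coli were pre-incubated 30 min at room temperature with compound (10-point, 3-fold series; top 20 μM for ALDH1A3, 250 μM for ALDH1A1/1A2). Propionaldehyde and NAD were then added at Km; NADH was read by NAD(P)H-Glo luminescence. Buffer: Tris (pH 7.6 for 1A1/1A2, 9.0 for 1A3), 1 mM TCEP, 0.01% Tween-20.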

Test [2] concerns the target T2, ALDH1A1 (Homo sapiens, UniProt P00352).
T2 construct: His-tag; made in house; host or cells: E. coli Rosetta (DE3)
T2 sequence (P00352 1-501): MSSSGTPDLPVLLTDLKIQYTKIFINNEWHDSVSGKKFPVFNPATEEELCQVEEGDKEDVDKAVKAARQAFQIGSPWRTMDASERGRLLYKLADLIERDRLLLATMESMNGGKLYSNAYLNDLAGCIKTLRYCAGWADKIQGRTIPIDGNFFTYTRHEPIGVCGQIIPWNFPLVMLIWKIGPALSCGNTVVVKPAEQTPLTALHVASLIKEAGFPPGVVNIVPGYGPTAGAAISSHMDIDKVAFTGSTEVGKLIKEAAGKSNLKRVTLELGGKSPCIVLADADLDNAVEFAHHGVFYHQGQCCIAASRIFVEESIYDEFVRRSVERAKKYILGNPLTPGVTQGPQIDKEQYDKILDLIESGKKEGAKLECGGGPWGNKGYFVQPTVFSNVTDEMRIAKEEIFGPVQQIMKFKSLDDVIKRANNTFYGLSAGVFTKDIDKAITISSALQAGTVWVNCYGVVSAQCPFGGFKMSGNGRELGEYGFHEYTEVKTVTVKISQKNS
Described as above. The method, boiled down: as §1

As to `Cc1ccccc1C1CCCN1CCOc1ccc2c(c1)CCC(=O)N2` (centres unmarked) [ALDHI-2012, 6-[2-[2-(o-tolyl)pyrrolidin-1-yl]ethoxy]-3,4-dihydro-1H-quinolin-2-one], the IC50 in test [1] and in test [2] was not below 100 µM throughout.

On to `O=C1CCc2cc(OCCN3CCCC3c3ccccn3)ccc2N1` (centres unmarked) [ALDHI-2006, 6-[2-[2-(2-pyridyl)pyrrolidin-1-yl]ethoxy]-3,4-dihydro-1H-quinolin-2-one], for which the IC50 in test [1] was 1 to 10 µM; in test [2], not below 100 µM.

For `Cc1cccc(-c2ncsc2C(=O)Nc2ccc3c(c2)CCC(=O)N3)c1` [ALDHI-1013, 4-(m-tolyl)-N-(2-oxo-3,4-dihydro-1H-quinolin-6-yl)thiazole-5-carboxamide], the IC50 in test [1] was 1 to 10 µM; in test [2] it was not below 100 µM.

As for `O=C1CCc2cc(OCCN3CC(F)(F)CC3c3cccc(F)c3)ccc2N1` (centres unmarked) [ALDHI-2053, 6-[2-[4,4-difluoro-2-(3-fluorophenyl)pyrrolidin-1-yl]ethoxy]-3,4-dihydro-1H-quinolin-2-one], the IC50 in test [1] is 1 to 10 µM; in test [2], not below 100 µM.

In the case of `O=C1CCc2cc(OCCN3CCCC3c3ccc(F)cc3)ccc2N1` (centres unmarked) [ALDHI-2003, 6-[2-[2-(4-fluorophenyl)pyrrolidin-1-yl]ethoxy]-3,4-dihydro-1H-quinolin-2-one], the IC50 in test [1] was 1 to 10 µM; in test [2] it was not below 100 µM.

In the case of `Cc1cccc(C2CCCN2CCOc2ccc3c(c2)CCC(=O)N3)c1` (centres unmarked) [ALDHI-2011, 6-[2-[2-(m-tolyl)pyrrolidin-1-yl]ethoxy]-3,4-dihydro-1H-quinolin-2-one], the values for the half-inhibitory concentration (IC50) in test [1] and in test [2] were 10 to 100 µM and not below 100 µM, respectively.

`O=C1CCc2cc(OCCN3CCCC3c3cccc(F)c3)ccc2N1` (centres unmarked) [ALDHI-2001, 6-[2-[2-(3-fluorophenyl)pyrrolidin-1-yl]ethoxy]-3,4-dihydro-1H-quinolin-2-one]: the IC50 in test [1] is 0.1 to 1 µM; in test [2], not below 100 µM.

On to `CCC1Oc2cc(OCCN3CCCC3c3cccc(F)c3)ccc2NC1=O` (centres unmarked) [ALDHI-2045, 2-ethyl-7-[2-[2-(3-fluorophenyl)pyrrolidin-1-yl]ethoxy]-4H-1,4-benzoxazin-3-one], for which the IC50 is 1 to 10 µM in test [1] and not below 100 µM in test [2].

Turning to `O=c1ccc2cc(OCCN3CCCC3c3cccc(F)c3)ccc2[nH]1` (centres unmarked) [ALDHI-2022, 6-[2-[2-(3-fluorophenyl)pyrrolidin-1-yl]ethoxy]-1H-quinolin-2-one], the values for the IC50 in test [1] and in test [2] were 1 to 10 µM and not below 100 µM, respectively.

For `CN(CCOc1ccc2c(c1)CCC(=O)N2)Cc1cccnc1` [ALDHI-3010, 6-[2-[methyl(3-pyridylmethyl)amino]ethoxy]-3,4-dihydro-1H-quinolin-2-one], the IC50 in test [1] and in test [2] was 10 to 100 µM each time.

As for `O=C1CCc2cc(NC(=O)c3ncsc3-c3cccnc3)ccc2N1` [ALDHI-1010, N-(2-oxo-3,4-dihydro-1H-quinolin-6-yl)-5-(3-pyridyl)thiazole-4-carboxamide], the IC50 in test [1] is 1 to 10 µM; in test [2], not below 100 µM.

Turning to `C[C@H](c1ccccc1)N(CCO)CCOc1ccc2c(c1)CCC(=O)N2` [ALDHI-3006, 6-[2-[2-hydroxyethyl-[(1R)-1-phenylethyl]amino]ethoxy]-3,4-dihydro-1H-quinolin-2-one], the IC50 in test [1] was in the range of 1 to 10 µM; in test [2], 10 to 100 µM.

Turning to `O=C1CCc2cc(NC(=O)c3scnc3-c3ccccc3F)ccc2N1` [ALDHI-1021, 4-(2-fluorophenyl)-N-(2-oxo-3,4-dihydro-1H-quinolin-6-yl)thiazole-5-carboxamide], the IC50 in test [1] was 1 to 10 µM; in test [2], not below 100 µM.

Consider `O=C1CCc2cc(OCCN3CCCC3c3ccc(F)c(F)c3)ccc2N1` (centres unmarked) [ALDHI-2039, 6-[2-[2-(3,4-difluorophenyl)pyrrolidin-1-yl]ethoxy]-3,4-dihydro-1H-quinolin-2-one], for which the IC50 in test [1] and in test [2] was 1 to 10 µM in each case.

For the compound `Cc1ccc(C2CCCN2CCOc2ccc3c(c2)CCC(=O)N3)cn1` (centres unmarked) [ALDHI-2030, 6-[2-[2-(6-methyl-3-pyridyl)pyrrolidin-1-yl]ethoxy]-3,4-dihydro-1H-quinolin-2-one], the IC50 is 10 to 100 µM in test [1] and not below 100 µM in test [2].

Regarding `CC1Cc2cc(OCCN3CCCC3c3cccc(F)c3)ccc2NC1=O` (centres unmarked) [ALDHI-2048, 6-[2-[2-(3-fluorophenyl)pyrrolidin-1-yl]ethoxy]-3-methyl-3,4-dihydro-1H-quinolin-2-one], the IC50 in test [1] lay within 0.1 to 1 µM; in test [2], 10 to 100 µM.

As for `CN(CCOc1ccc2c(c1)CCC(=O)N2)C(=O)c1cccc(F)c1` [ALDHI-3008, 3-fluoro-N-methyl-N-[2-[(2-oxo-3,4-dihydro-1H-quinolin-6-yl)oxy]ethyl]benzamide], the IC50 in test [1] was 1 to 10 µM; in test [2], not below 100 µM.

As for `O=C1CCc2cc(OCCN(CCO)Cc3cccnc3)ccc2N1` [ALDHI-3005, 6-[2-[2-hydroxyethyl(3-pyridylmethyl)amino]ethoxy]-3,4-dihydro-1H-quinolin-2-one], the IC50 was 10 to 100 µM in test [1] and not below 100 µM in test [2].

Consider `CN(CCOc1ccc2c(c1)CCC(=O)N2)C(=O)c1cccnc1` [ALDHI-3013, N-methyl-N-[2-[(2-oxo-3,4-dihydro-1H-quinolin-6-yl)oxy]ethyl]pyridine-3-carboxamide], for which the IC50 in test [1] and in test [2] was not below 100 µM in each case.

With `C[C@@H](c1ccccc1)N(CCO)CCOc1ccc2c(c1)CCC(=O)N2` [ALDHI-3007, 6-[2-[2-hydroxyethyl-[(1S)-1-phenylethyl]amino]ethoxy]-3,4-dihydro-1H-quinolin-2-one], the IC50 lay in the range of 1 to 10 µM in test [1] and 10 to 100 µM in test [2].

In the case of `O=C1CCc2cc(OCCN3CCCCC3c3cccc(F)c3)ccc2N1` (centres unmarked) [ALDHI-2038, 6-[2-[2-(3-fluorophenyl)-1-piperidyl]ethoxy]-3,4-dihydro-1H-quinolin-2-one], the IC50 in test [1] lay in the range of 1 to 10 µM; in test [2], 10 to 100 µM.

For the compound `CC1Oc2cc(OCCN3CCCC3c3cccc(F)c3)ccc2NC1=O` (centres unmarked) [ALDHI-2044, 7-[2-[2-(3-fluorophenyl)pyrrolidin-1-yl]ethoxy]-2-methyl-4H-1,4-benzoxazin-3-one], the IC50 in test [1] was 10 to 100 µM; in test [2], not below 100 µM.

For `CN(CCOc1ccc2c(c1)CCC(=O)N2)C(CO)c1cccc(F)c1` (centres unmarked) [ALDHI-3003, 6-[2-[[1-(3-fluorophenyl)-2-hydroxy-ethyl]-methyl-amino]ethoxy]-3,4-dihydro-1H-quinolin-2-one], the IC50 was 1 to 10 µM in test [1] and not below 100 µM in test [2].

`CCN(CC)CCN(CCOc1ccc2c(c1)CCC(=O)N2)Cc1ccccc1` [ALDHI-3004, 6-[2-[benzyl-[2-(diethylamino)ethyl]amino]ethoxy]-3,4-dihydro-1H-quinolin-2-one]: the IC50 is 1 to 10 µM in test [1] and not below 100 µM in test [2].

Consider `O=C1CCc2cc(OCCN3CCCC3c3cccc(F)c3)c(F)cc2N1` (centres unmarked) [ALDHI-2050, 7-fluoro-6-[2-[2-(3-fluorophenyl)pyrrolidin-1-yl]ethoxy]-3,4-dihydro-1H-quinolin-2-one], for which the IC50 is 1 to 10 µM in test [1] and not below 100 µM in test [2].

Turning to `O=C1CCc2cc(OCCn3ccnc3-c3ccccc3)ccc2N1` [ALDHI-2041, 6-[2-(2-phenylimidazol-1-yl)ethoxy]-3,4-dihydro-1H-quinolin-2-one], the IC50 in test [1] was 1 to 10 µM; in test [2] it was not below 100 µM.

With `CCn1cc(C2CCCN2CCOc2ccc3c(c2)CCC(=O)N3)cn1` (centres unmarked) [ALDHI-2016, 6-[2-[2-(1-ethylpyrazol-4-yl)pyrrolidin-1-yl]ethoxy]-3,4-dihydro-1H-quinolin-2-one], the IC50 in test [1] and in test [2] was not below 100 µM each time.

Regarding `CN(CCOc1ccc2c(c1)CCC(=O)N2)Cc1cccc(F)c1` [ALDHI-3001, 6-[2-[(3-fluorophenyl)methyl-methyl-amino]ethoxy]-3,4-dihydro-1H-quinolin-2-one], the values for the IC50 in test [1] and in test [2] were 1 to 10 µM and not below 100 µM, respectively.
